Laboratory results from ChEMBL document CHEMBL4715697, “Synthesis and biological activity of benzamide DNA minor groove binders” (2016).

Key:
Type in all cases: functional
[1] = tested on: U-251; assay: Growth inhibition of human U-251 cells assessed as cell growth at 0.01 uM incubated for 48 hrs by sulforhodamine B assay relative to control; settings: read-out: Activity
[2] = tested on: BT-549; assay: Growth inhibition of human BT-549 cells assessed as cell growth at 0.1 uM incubated for 48 hrs by sulforhodamine B assay relative to control; settings: read-out: Activity
[3] = tested on: M14; assay: Growth inhibition of human M14 cells assessed as cell growth at 0.1 uM incubated for 48 hrs by sulforhodamine B assay relative to control; settings: read-out: Activity
[4] = tested on: HCC 2998; assay: Growth inhibition of human HCC 2998 cells incubated for 48 hrs by sulforhodamine B assay
[5] = tested on: NCI-H322M; assay: Growth inhibition of human NCI-H322M cells assessed as cell growth at 100 uM incubated for 48 hrs by sulforhodamine B assay relative to control; settings: read-out: Activity
[6] = tested on: NCI/ADR-RES; assay: Growth inhibition of human NCI/ADR-RES cells assessed as cell growth at 1 uM incubated for 48 hrs by sulforhodamine B assay relative to control; settings: read-out: Activity
[7] = tested on: SK-MEL-2; assay: Growth inhibition of human SK-MEL-2 cells assessed as cell growth at 1 uM incubated for 48 hrs by sulforhodamine B assay relative to control; settings: read-out: Activity
[8] = tested on: SW-620; assay: Growth inhibition of human SW-620 cells incubated for 48 hrs by sulforhodamine B assay
[9] = tested on: Hs-578T; assay: Growth inhibition of human Hs-578T cells incubated for 48 hrs by sulforhodamine B assay
[10] = tested on: SNB-75; assay: Growth inhibition of human SNB-75 cells assessed as cell growth at 1 uM incubated for 48 hrs by sulforhodamine B assay relative to control; settings: read-out: Activity
[11] = tested on: NCI-H226; assay: Growth inhibition of human NCI-H226 cells incubated for 48 hrs by sulforhodamine B assay
[12] = tested on: SR; assay: Growth inhibition of human SR cells assessed as cell growth at 100 uM incubated for 48 hrs by sulforhodamine B assay relative to control; settings: read-out: Activity
[13] = tested on: NCI-H522; assay: Growth inhibition of human NCI-H522 cells assessed as cell growth at 0.1 uM incubated for 48 hrs by sulforhodamine B assay relative to control; settings: read-out: Activity
[14] = tested on: MOLT-4; assay: Growth inhibition of human MOLT-4 cells assessed as cell growth at 100 uM incubated for 48 hrs by sulforhodamine B assay relative to control; settings: read-out: Activity
[15] = tested on: UO-31; assay: Growth inhibition of human UO-31 cells assessed as cell growth at 100 uM incubated for 48 hrs by sulforhodamine B assay relative to control; settings: read-out: Activity
[16] = tested on: MDA-MB-468; assay: Growth inhibition of human MDA-MB-468 cells assessed as cell growth at 100 uM incubated for 48 hrs by sulforhodamine B assay relative to control; settings: read-out: Activity
[17] = tested on: UACC-62; assay: Growth inhibition of human UACC-62 cells assessed as cell growth at 100 uM incubated for 48 hrs by sulforhodamine B assay relative to control; settings: read-out: Activity
[18] = tested on: NCI-H322M; assay: Growth inhibition of human NCI-H322M cells incubated for 48 hrs by sulforhodamine B assay
[19] = tested on: KM12; assay: Growth inhibition of human KM12 cells assessed as cell growth at 0.1 uM incubated for 48 hrs by sulforhodamine B assay relative to control; settings: read-out: Activity
[20] = tested on: OVCAR-4; assay: Growth inhibition of human OVCAR-4 cells assessed as cell growth at 0.01 uM incubated for 48 hrs by sulforhodamine B assay relative to control; settings: read-out: Activity
[21] = tested on: U-251; assay: Growth inhibition of human U-251 cells assessed as cell growth at 100 uM incubated for 48 hrs by sulforhodamine B assay relative to control; settings: read-out: Activity
[22] = tested on: IGROV-1; assay: Growth inhibition of human IGROV-1 cells assessed as cell growth at 100 uM incubated for 48 hrs by sulforhodamine B assay relative to control; settings: read-out: Activity
[23] = tested on: TK-10; assay: Growth inhibition of human TK-10 cells incubated for 48 hrs by sulforhodamine B assay
[24] = tested on: HCT-15; assay: Growth inhibition of human HCT-15 cells incubated for 48 hrs by sulforhodamine B assay
[25] = tested on: RPMI-8226; assay: Growth inhibition of human RPMI-8226 cells assessed as cell growth at 100 uM incubated for 48 hrs by sulforhodamine B assay relative to control; settings: read-out: Activity
[26] = tested on: MOLT-4; assay: Growth inhibition of human MOLT-4 cells assessed as cell growth at 0.01 uM incubated for 48 hrs by sulforhodamine B assay relative to control; settings: read-out: Activity
[27] = tested on: OVCAR-5; assay: Growth inhibition of human OVCAR-5 cells assessed as cell growth at 100 uM incubated for 48 hrs by sulforhodamine B assay relative to control; settings: read-out: Activity
[28] = tested on: HL-60(TB); assay: Growth inhibition of human HL-60(TB) cells assessed as cell growth at 0.01 uM incubated for 48 hrs by sulforhodamine B assay relative to control; settings: read-out: Activity
[29] = tested on: IGROV-1; assay: Growth inhibition of human IGROV-1 cells assessed as cell growth at 1 uM incubated for 48 hrs by sulforhodamine B assay relative to control; settings: read-out: Activity
[30] = tested on: HCT-116; assay: Growth inhibition of human HCT-116 cells assessed as cell growth at 0.1 uM incubated for 48 hrs by sulforhodamine B assay relative to control; settings: read-out: Activity
[31] = tested on: CCRF-CEM; assay: Growth inhibition of human CCRF-CEM cells assessed as cell growth at 100 uM incubated for 48 hrs by sulforhodamine B assay relative to control; settings: read-out: Activity
[32] = tested on: HT-29; assay: Growth inhibition of human HT-29 cells assessed as cell growth at 1 uM incubated for 48 hrs by sulforhodamine B assay relative to control; settings: read-out: Activity
[33] = tested on: SNB-19; assay: Growth inhibition of human SNB-19 cells assessed as cell growth at 100 uM incubated for 48 hrs by sulforhodamine B assay relative to control; settings: read-out: Activity
[34] = tested on: IGROV-1; assay: Growth inhibition of human IGROV-1 cells incubated for 48 hrs by sulforhodamine B assay
[35] = read-out: LC50 (the source's name)
[36] = read-out: pLC50 (the source's name) (converted)

## CC(=O)Nc1cc(CCl)cc(NC(=O)c2ccc(C(=O)Nc3cccc(NC(=O)CCCN(C)C)c3)cc2)c1
[1]
  growth at 0.01 µM: 98%
[2]
  growth at 0.1 µM: 103%
[3]
  growth at 0.1 µM: 102%
[4]; read-out: GI50
  GI50: > 100 µM
[4]; [35]
  CC50: > 100 µM
[4]; read-out: TGI
  TGI: > 100 µM
[4]; read-out: pGI50 (converted)
  GI50: > 100 µM
[4]; [36]
  CC50: > 100 µM
[4]; read-out: pTGI
  TGI: > 100 µM
[5]
  growth at 100 µM: 103%
[6]
  growth at 1 µM: 95%
[7]
  growth at 1 µM: 109%
[8]; read-out: GI50
  GI50: > 100 µM
[8]; read-out: LC50
  LC50: > 100 µM
[8]; read-out: TGI
  TGI: > 100 µM
[8]; read-out: pGI50 (converted)
  GI50: > 100 µM
[8]; read-out: pLC50 (converted)
  LC50: > 100 µM
[8]; read-out: pTGI
  TGI: > 100 µM
[9]; read-out: GI50
  GI50: > 100 µM
[9]; [35]
  CC50: > 100 µM
[9]; read-out: TGI
  TGI: > 100 µM
[9]; read-out: pGI50 (converted)
  GI50: > 100 µM
[9]; [36]
  CC50: > 100 µM
[9]; read-out: pTGI
  TGI: > 100 µM
[10]
  growth at 1 µM: 78%
[11]; read-out: GI50
  GI50: > 100 µM
[11]; [35]
  CC50: > 100 µM
[11]; read-out: TGI
  TGI: > 100 µM
[11]; read-out: pGI50 (converted)
  GI50: > 100 µM
[11]; [36]
  CC50: > 100 µM
[11]; read-out: pTGI
  TGI: > 100 µM
[12]
  growth at 100 µM: 99%
[13]
  growth at 0.1 µM: 89%
[14]
  growth at 100 µM: 99%
[15]
  growth at 100 µM: 113%
[16]
  growth at 100 µM: 51%
[17]
  growth at 100 µM: 84%
[18]; read-out: GI50
  GI50: > 100 µM
[18]; [35]
  CC50: > 100 µM
[18]; read-out: TGI
  TGI: > 100 µM
[18]; read-out: pGI50 (converted)
  GI50: > 100 µM
[18]; [36]
  CC50: > 100 µM
[18]; read-out: pTGI
  TGI: > 100 µM
[19]
  growth at 0.1 µM: 108%
[20]
  growth at 0.01 µM: 99%
[21]
  growth at 100 µM: 95%
[22]
  growth at 100 µM: 100%
[23]; read-out: GI50
  GI50: > 100 µM
[23]; [35]
  CC50: > 100 µM
[23]; read-out: TGI
  TGI: > 100 µM
[23]; read-out: pGI50 (converted)
  GI50: > 100 µM
[23]; [36]
  CC50: > 100 µM
[23]; read-out: pTGI
  TGI: > 100 µM
[24]; read-out: GI50
  GI50: > 100 µM
[24]; [35]
  CC50: > 100 µM
[24]; read-out: TGI
  TGI: > 100 µM
[24]; read-out: pGI50 (converted)
  GI50: > 100 µM
[24]; [36]
  CC50: > 100 µM
[24]; read-out: pTGI
  TGI: > 100 µM
[25]
  growth at 100 µM: 107%
[26]
  growth at 0.01 µM: 102%
[27]
  growth at 100 µM: 91%
[28]
  growth at 0.01 µM: 86%
[29]
  growth at 1 µM: 110%
[30]
  growth at 0.1 µM: 107%
[31]
  growth at 100 µM: -70%
[32]
  growth at 1 µM: 101%
[33]
  growth at 100 µM: 117%
[34]; read-out: GI50
  GI50: > 100 µM
[34]; [35]
  CC50: > 100 µM
[34]; read-out: TGI
  TGI: > 100 µM
[34]; read-out: pGI50 (converted)
  GI50: > 100 µM
[34]; [36]
  CC50: > 100 µM
[34]; read-out: pTGI
  TGI: > 100 µM
